The values that follow come from patent US20130267474A1, “NOVEL PHYTOCHEMICALS FROM EXTRACTS OF MAPLE SYRUPS AND MAPLE TREES AND USES THEREOF” (UNIVERSITY OF RHODE ISLAND, priority 2010, published 2013).

The nature of experiment [1]: DPPH radical scavenging (antioxidant) assay. It is filed as biochemical. Conditions: for IC50, DPPH radical scavenging, converted (ca.): conversion of the μM value. The procedure:
The DPPH radical scavenging activity of ascorbic acid (vitamin C) and the synthetic commercial antioxidant, butylated hydroxytoluene (BHT) are also assayed as positive controls (see Table 10). […] Absorbance is determined after 30 min at 515 nm, and the scavenging capacity (SC) is calculated as SC %=[(A0−A1/A0)]×100, where A0 is the absorbance of the reagent blank and A1 is the absorbance of the test samples. The control contained all reagents except the compounds, and all tests are performed in triplicate.
Absorbance is determined after 30 min at 515 nm, and the scavenging capacity (SC) is calculated as SC %=[(A0−A1/A0)]×100 where A0 is the absorbance of the reagent blank, and A1 is the absorbance with test samples. The control contained all reagents except the compounds and all tests are performed in triplicate.

Experiment [2] has as its system Caco-2 (human epithelial colorectal adenocarcinoma). The experiment is described as follows: MTS cytotoxicity / antiproliferative assay. It is filed as cell-based. As to conditions: Homo sapiens. The procedure: (§1) Cell lines included three human colon cancer cells: HT-29 (human colon adenocarcinoma), HCT116 (human colon carcinoma) and Caco-2 (human epithelial colorectal adenocarcinoma). In addition, normal human colon cells are included: CCD-^18Co (human colon fibroblasts). All cell lines are obtained from the American Type Culture Collection (ATCC, Rockville, Md., USA) and maintained at the University of Rhode Island.
(§2) The assay is carried out to measure the IC50 values for samples. […] Test samples and a positive control, etoposide 4 mg/mL (Sigma), are solubilized in DMSO by sonication. […] Control wells are also included on all plates. […] Each point on the curve is […]. Data (see tables 6 to 9) are expressed as mean±SE for three replications on each cell line.

The test system of experiment [3] is HT-29 (human colon adenocarcinoma). The experiment is described as follows: MTS cytotoxicity / antiproliferative assay. It is filed as cell-based. Conditions: Homo sapiens. The protocol: as §1, §2
For experiment [4], the system named is HCT-116 (human colon carcinoma). Nature of the experiment: MTS cytotoxicity / antiproliferative assay. It is filed as cell-based. As to conditions: Homo sapiens. The procedure:
as §1, §2

The mark [5] stands for this setting: Table 10, mean ± standard deviation, 30 min, 515 nm, read-out: IC50 (μM), DPPH radical scavenging.

Read-outs that look alike come from different tables or passages of the source.

syringaldehyde [compound 16]: the IC50 in experiment [1] (setting [5]) was 2880 ± 44 µM.
Still for that read-out and setting: the figure for `COc1cc(C(O)C(CO)Oc2c(OC)cc(CCCO)cc2OC)ccc1O` (stereo not drawn) [compound 30, erythro-1-(4-hydroxy-3-methoxyphenyl)-2-[4-(3-hydroxypropyl)-2,6-dimethoxyphenoxy]-1,3-propanediol] is 904 µM.
In the case of “trimethyl gallic acid methyl ester [compound 18]”, in experiment [1] (setting [5]), the half-inhibitory concentration (IC50) is 112 ± 5.1 µM.
On to `COc1cc(C(O)C(CO)Oc2ccc(C(O)C(O)CO)cc2OC)ccc1O` (stereo not drawn) [compound 28], for which the IC50 in experiment [1] (setting [5]) was 814 ± 37.7 µM.
Still for that read-out and setting: then gallic acid [compound 17], with 703 ± 141 µM.
Consider `Cc1cc(C(C)(C)C)c(O)c(C(C)(C)C)c1` [BHT, butylated hydroxytoluene, reference compound], for which the IC50 in experiment [1] (setting [5]) was 3000 ± 1120 µM; in experiment [1] (running text, listed as butylatedhydroxytoluene, read-out: IC50, DPPH radical scavenging (text)), 2650 µM; in experiment [1] (running text, read-out: IC50, DPPH radical scavenging (text)), 3000 µM. The “IC50, DPPH radical scavenging, converted (ca.)” value in experiment [1] was “ca. 660 μg/mL”.
For the molecule catechol [compound 23], the IC50 in experiment [1] (setting [5]) is 10100 ± 1670 µM.
For “2,4,5-trihydroxyacetophenone [compound 13]”, the IC50 in experiment [1] (setting [5]) came out at 68.9 ± 5.7 µM.
Still for that read-out and setting: then `COc1cc(C(O)C(CO)Oc2ccc(C(O)C(O)CO)cc2OC)ccc1O` (stereo not drawn) [compound 27], with 164 ± 15.2 µM; and catechaldehyde [compound 14], with 694 ± 110 µM.
Still for that read-out and setting: then `COc1cc(C(O)C(CO)Oc2c(OC)cc(C(O)C(O)CO)cc2OC)ccc1O` (stereo not drawn) [compound 25, (erythro,erythro)-1-[4-[2-hydroxy-2-(4-hydroxy-3-methoxyphenyl)-1-(hydroxymethyl)ethoxy]-3,5-dimethoxyphenyl]-1,2,3-propanetriol], with 97.8 ± 24 µM; and syringic acid [compound 19], with 258 ± 33.8 µM.
lyoniresinol [compound 1]: the IC50 in experiment [1] (setting [5]) worked out at 946 ± 58.5 µM.
Take `O=C1O[C@H]([C@@H](O)CO)C(O)=C1O` [Ascorbic acid, reference compound]: the IC50 was 40.2 ± 13.4 µM in experiment [1] (setting [5]); 40 µM in experiment [1] (listed as Vitamin C, read-out: IC50, DPPH radical scavenging (text)); 58 µM in experiment [1] (listed as vitamin C, read-out: IC50, DPPH radical scavenging (text)). Moreover, the “IC50, DPPH radical scavenging, converted (ca.)” value in experiment [1] was “ca. 7.08 μg/mL”.
With dehydroconiferyl alcohol [compound 3], in experiment [1] (setting [5]), the 50% inhibitory concentration (IC50) is 925 ± 179 µM.
Still for that read-out and setting: then “5-(3″,4″-dimethoxyphenyl)-3-hydroxy-3-(4′-hydroxy-3′-methoxybenzyl)-4-hydroxymethyl-dihydrofuran-2-one [compound 24]”, with 254 ± 32.5 µM; and `COc1cc([C@@H](O)[C@@H](CO)Oc2ccc(CCCO)cc2OC)ccc1O` [compound 29, threo-guaiacylglycerol-β-O-4′-dihydroconiferyl alcohol], with 139 ± 13.3 µM.
As to `COc1cc(C=O)cc(OC)c1O` [compound 16, syringaldehyde], the IC50 in experiment [2] (Caco-2, 48 h, read-out: Antiproliferative activity Caco-2 48 h (IC50)) turned out to be 59.4 ± 2.7 µM; in experiment [2] (Caco-2, 48 h, read-out: Caco-2 48 h(IC50)) it was 59.4 µM; in experiment [2] (Caco-2, 72 h, read-out: Antiproliferative activity Caco-2 72 h (IC50)), 35.9 ± 2.4 µM; in experiment [2] (Caco-2, 72 h, read-out: Caco-2 72 h(IC50)) it was 35.9 µM; in experiment [3] (HT-29, 48 h, read-out: Antiproliferative activity HT-29 48 h (IC50)), 90.7 ± 3 µM; in experiment [3] (HT-29, 48 h, read-out: HT-29 48 h(IC50)) it was 90.7 µM. Also, the IC50 amounted to 68.6 ± 1.4 µM in experiment [3] (HT-29, 72 h, read-out: Antiproliferative activity HT-29 72 h (IC50)); 68.6 µM in experiment [3] (HT-29, 72 h, read-out: HT-29 72 h(IC50)); 66.8 ± 1.3 µM in experiment [4] (HCT-116, 48 h, read-out: Antiproliferative activity HCT-116 48 h (IC50)); 66.8 µM in experiment [4] (HCT-116, 48 h, read-out: HCT-116 48 h(IC50)); 56.3 ± 1.8 µM in experiment [4] (HCT-116, 72 h, read-out: Antiproliferative activity HCT-116 72 h (IC50)); 56.3 µM in experiment [4] (HCT-116, 72 h, read-out: HCT-116 72 h(IC50)). The IC50 in experiment [4] (HCT-116, 72 h, read-out: IC50 against HCT-116 cells at 72 h (activity ranking)) is 42 to 67 µM.
